According to US20050113410A1, “Pharmaceutical salts of zafirlukast” (priority 2003, published 2005):
Counter-ions that a name gives are not always drawn. Blank lines part the entries; values can stand above or below the molecule they belong to.

Columns and labels:
[1] = cited from earlier work
[2] = Stability of the crystalline form under aqueous conditions (conversion to neutral form, checked by PXRD); format: physicochemical
From the text: All powder x-ray diffraction patterns were obtained using the D/Max Rapid X-ray Diffractometer (D/Max Rapid, Contact Rigaku/MSC, 9009 New Trails Drive, The Woodlands, Tex., USA 77381-5209) equipped with a copper source (Cu/Kα1.5406 angstroms), manual x-y stage, and 0.3 mm collimator. The sample was loaded into a 0.3 mm boron rich glass capillary tube (e.g., Charles Supper Company, 15 Tech Circle, Natick, Mass. 01760-1024) by sectioning off one end of the tube and tapping the open, sectioned end into a bed of the powdered sample or into the sediment of a slurried precipitate. Note, precipitate can be amorphous or crystalline. The loaded capillary was mounted in a holder that was secured into the x-y stage. A diffractogram was acquired (e.g., Control software: RINT Rapid Control Software, Rigaku Rapid/XRD, version 1.0.0, © 1999 Rigaku Co.) under ambient conditions at a power setting of 46 kV at 40 mA in reflection mode, while oscillating about the omega-axis from 0-5 degrees at 1 degree/s and spinning about the phi-axis at 2 degrees/s. The exposure time was 15 minutes unless otherwise specified. […]

[3] = commercially available form (ACCOLATE), neutral molecule; cited from earlier work

SMILES: COc1cc(C(=O)NS(=O)(=O)c2ccccc2C)ccc1Cc1cn(C)c2ccc(NC(=O)OC3CCCC3)cc12 [Amorphous neutral zafirlukast]
conversion of form in the presence of water [1]: convert to a monohydrate form

PXRD diffractogram after exposure to aqueous conditions ([2]; after exposure to neutral or acidic aqueous conditions): remains unchanged
SMILES: COc1cc(C(=O)NS(=O)(=O)c2ccccc2C)ccc1Cc1cn(C)c2ccc(NC(=O)OC3CCCC3)cc12 [potassium salt of zafirlukast]
conversion back to the neutral form under aqueous conditions ([2]; aqueous conditions, either neutral or acidic): does not convert back to the neutral form

SMILES: COc1cc(C(=O)NS(=O)(=O)c2ccccc2C)ccc1Cc1cn(C)c2ccc(NC(=O)OC3CCCC3)cc12 [zafirlukast, 4-(5-cyclopentyloxy-carbonylamino-1-methyl-indol-3-ylmethyl)-3-methoxy-N-o-tolylsulfonylbenzamide]
solubility in water [3]: essentially insoluble in water
